Patent US20230322724A1, “HETEROCYCLIC COMPOUNDS AS CBP/EP300 BROMODOMAIN INHIBITORS” (AURIGENE ONCOLOGY LIMITED, priority 2020, published 2023)

The compounds below were run against T1, recombinant CREBBP bromodomain (Homo sapiens, UniProt Q92793) (assay: CBP TR-FRET displacement assay). Conditions: compound at 10 μM.
T1 construct: recombinant CREBBP bromodomain obtained from BPS Bioscience, USA; purchased BPS Bioscience, USA
T1 sequence (Q92793 1085-1192 limits assumed): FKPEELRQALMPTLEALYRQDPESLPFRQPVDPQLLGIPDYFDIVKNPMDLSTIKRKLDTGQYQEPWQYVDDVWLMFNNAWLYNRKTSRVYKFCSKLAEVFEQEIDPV
Format: binding
Experimental: The potency of compounds to inhibit CREBBP enzyme was tested in a TR-FRET displacement assay using recombinant CREBBP bromodomain obtained from BPS Bioscience, USA. The assay buffer was 50 mM HEPES (pH 7.5), 50 mM NaCl, 0.008% Brij 35, 0.01% BSA, 1 mM TCEP. 50 nM of CREBBP & 500 nM of Biotinylated ligand was incubated at room temperature for 30 minutes, the reaction was initiated by adding pre-incubated enzyme ligand mixture to the test compounds. After 60 min incubation, the reaction was stopped by the addition of stop mix containing 1 nM of LANCE Europium-anti-6xHis antibody (Perkin Elmer, USA) and 40 nM of Sure Light Allophycocyanin-Streptavidin (Perkin Elmer, USA). Fluorescence emission of the samples at 665 and 615 nm were measured at an excitation of 340 nm and their ratio was plotted against the compound concentrations to generate dose-response curve. The percent inhibition of the test compounds is calculated using the ratio of enzyme activity controls.
elected compounds of the present invention were screened in the above-mentioned assay procedures and IC50 values were determined by fitting the dose-response data to sigmoidal curve fitting equation using Graph pad prism software V7.
For `CCc1cc2c(N3CCN(C)c4cc(-c5cnn(C)c5)c(C#N)cc43)cccc2[nH]c1=O` [Example 50], the inhibition at 10 µM was 90%. `Cc1cc2c(N3CCN(C)c4cc(-c5cnn(C)c5)c(CO)cc43)cccc2[nH]c1=O` [Example 58, 5-(7-(Hydroxymethyl)-4-methyl-6-(1-methyl-1H-pyrazol-4-yl)-3,4-dihydroquinoxalin-1(2H)-yl)-3-methylquinolin-2(1H)-one] gave an inhibition at 10 µM of 91%. `Cc1cc2c(N3CCN(C4CCOCC4)c4ccccc43)cccc2n(C)c1=O` [Example 78, 1,3-Dimethyl-5-(4-(tetrahydro-2H-pyran-4-yl)-3,4-dihydroquinoxalin-1(2H)-yl)quinolin-2(1H)-one] showed an inhibition at 10 µM of 25%. With `COc1cc(N2CCN(C)c3ccc(S(C)(=N)=O)cc32)c2cc(C)c(=O)n(C)c2c1` (stereo not shown) [Example 101] the inhibition at 10 µM was 27%. `COc1cc(N2CCN(C)c3cc(N4CCCCC4=O)ncc32)c2cc(C)c(=O)n(C)c2c1` [Example 126] gave an inhibition at 10 µM of 46%.

Same assay, conditions: compound at 10 μM, 10 µM
For `Cc1cc2c(N3CCN(C)c4cc(-c5cnn(C)c5)c(C#N)cc43)cc(OCC3CCCN(C)C3)cc2n(C)c1=O` (single isomer, unassigned) [Example 248, 4-(1,3-Dimethyl-7-((1-methylpiperidin-3-yl)methoxy)-2-oxo-1,2-dihydroquinolin-5-yl)-1-methyl-7-(1-methyl-1H-pyrazol-4-yl)-1,2,3,4-tetrahydroquinoxaline-6-carbonitrile], the “% Inhibition (10 μM)” value was 100%.

Same assay, conditions: dose-response, read-out: IC50 (group A, B, C)
Compound `COc1cc(N2CCN(C)c3ccc([S+](C)[O-])cc32)c2cc(C)c(=O)n(C)c2c1` (single isomer, unassigned) [Example 250] has an IC50 of over 10 nM. `COc1cc(N2CCN(C)c3cc(-c4ccncc4)c(C#N)cc32)c2cc(C)c(=O)n(C)c2c1` [Example 21] was tested, and the IC50 was under 50 nM. With `COc1cc(N2CCN(C)c3cc(N4CCC(N(C)C)CC4)c(C#N)cc32)c2cc(C)c(=O)n(C)c2c1` [Example 22] the IC50 was under 50 nM. `COc1cc(N2CCN(C)c3cc(N4CC(C)NC(C)C4)c(C#N)cc32)c2cc(C)c(=O)n(C)c2c1` (stereo not shown) [Example 24] showed an IC50 of over 10 nM. With `CNC(=O)N1CCN(c2cc3c(cc2C#N)N(c2cc(OC)cc4c2cc(C)c(=O)n4C)CCN3C)CC1` [Example 28] the IC50 was under 50 nM. `COc1cc(N2CCN(C)c3cc(-c4cnn(C)c4)c(F)cc32)c2cc(C)c(=O)n(C)c2c1` [Example 30] showed an IC50 of under 50 nM. With `CCN1CCN(c2cc(OC)cc3c2cc(C)c(=O)n3C)c2cc(C#N)c(N3CCN(C(C)=O)CC3)cc21` [Example 32] the IC50 was under 50 nM. For `COC(=O)c1cc2c(cc1-c1cnn(C)c1)N(C)CCN2c1cc(OC)cc2c1cc(C)c(=O)n2C` [Example 34], the IC50 was under 50 nM. In the case of `Cc1cc2c(N3CCN(C)c4cc(-c5cnn(C)c5)c(C#N)cc43)cc(OCc3ncco3)cc2n(C)c1=O` [Example 41], the IC50 is reported as under 50 nM. `Cc1cc2c(N3CCN(C)c4cc(C5=CCN(C)CC5)ccc43)cccc2n(C)c1=O` [Example 44] gave an IC50 of over 10 nM. Work on `Cc1cc2c(N3CCN(C)c4cc(-c5cnn(C)c5)c(F)cc43)cc(N(C)C)cc2n(C)c1=O` [Example 45] yielded an IC50 of under 50 nM. With `Cc1cc2c(N3CCN(C)c4cc(-c5cnn(C)c5)c(C#N)cc43)cc(N3CCOCC3)cc2n(C)c1=O` [Example 47] the IC50 was under 50 nM. Work on `CNC(=O)C1CCN(c2cc3c(cc2F)N(c2cc(N4CCOCC4)cc4c2cc(C)c(=O)n4C)CCN3C)CC1` [Example 49] yielded an IC50 of under 50 nM. Work on `Cc1cc2c(N3CCN(C)c4cc(-c5cnn(C)c5)c(C#N)cc43)cncc2n(C)c1=O` [Example 53] yielded an IC50 of under 50 nM. `COc1cc(N2CC(=O)Nc3cc(-c4cnn(C)c4)c(F)cc32)c2cc(C)c(=O)n(C)c2c1` [Example 55] was tested, and the IC50 was 51 to 100 nM. For `COc1cc(N2CCN(C)c3cc(N4CCC(NC(C)=O)CC4)c(C#N)cc32)c2cc(C)c(=O)n(C)c2c1` [Example 56], the IC50 was under 50 nM. `Cc1cc2c(N3CCN(C)c4cc(-c5cnn(C)c5)c(CO)cc43)cccc2[nH]c1=O` [Example 58, 5-(7-(Hydroxymethyl)-4-methyl-6-(1-methyl-1H-pyrazol-4-yl)-3,4-dihydroquinoxalin-1(2H)-yl)-3-methylquinolin-2(1H)-one] showed an IC50 of 51 to 100 nM. With `COc1cc(N2CCN(C)c3cc(N4CCC(C(=O)NCCO)CC4)c(C#N)cc32)c2cc(C)c(=O)n(C)c2c1` [Example 59, 1-(7-Cyano-1-(7-methoxy-1,3-dimethyl-2-oxo-1,2-dihydroquinolin-5-yl)-4-methyl-1,2,3,4-tetrahydroquinoxalin-6-yl)-N-(2-hydroxyethyl)piperidine-4-carboxamide] the IC50 was under 50 nM. With `CC(=O)N1CCN(CCOc2cc(N3CCN(C)c4cc(-c5cnn(C)c5)c(C#N)cc43)c3cc(C)c(=O)n(C)c3c2)CC1` [Example 61, 4-(7-(2-(4-Acetylpiperazin-1-yl)ethoxy)-1,3-dimethyl-2-oxo-1,2-dihydroquinolin-5-yl)-1-methyl-7-(1-methyl-1H-pyrazol-4-yl)-1,2,3,4-tetrahydroquinoxaline-6-carbonitrile] the IC50 was under 50 nM. `COc1cc(N2CCN(C(C)=O)c3cc(-c4cnn(C)c4)c(C#N)cc32)c2cc(C)c(=O)n(C)c2c1` [Example 63, 1-acetyl-4-(7-methoxy-1,3-dimethyl-2-oxo-1,2-dihydroquinolin-5-yl)-7-(1-methyl-1H-pyrazol-4-yl)-1,2,3,4-tetrahydroquinoxaline-6-carbonitrile] showed an IC50 of 51 to 100 nM. `CCS(=O)(=O)N1CCN(c2cccc3c2cc(C)c(=O)n3C)c2ccc(-c3cnn(C)c3)cc21` [Example 74, 5-(4-(Ethylsulfonyl)-6-(1-methyl-1H-pyrazol-4-yl)-3,4-dihydroquinoxalin-1(2H)-yl)-1,3-dimethylquinolin-2(1H)-one] was tested, and the IC50 was over 10 nM. `CNC(=O)N1CCN(c2cccc3c2cc(C)c(=O)n3C)c2ccc(-c3cnn(C)c3)cc21` [Example 75, 4-(1,3-Dimethyl-2-oxo-1,2-dihydroquinolin-5-yl)-N-methyl-7-(1-methyl-1H-pyrazol-4-yl)-3,4-dihydroquinoxaline-1(2H)-carboxamide] showed an IC50 of over 10 nM. For `Cc1cc2c(N3CCN(C)c4nc(-c5cnn(C)c5)ncc43)cc(N3CCOCC3)cc2n(C)c1=O` [Example 76, 1,3-Dimethyl-5-(8-methyl-2-(1-methyl-1H-pyrazol-4-yl)-7,8-dihydropteridin-5(6H)-yl)-7-morpholinoquinolin-2(1H)-one], the IC50 was under 50 nM. With `CNC(=O)c1ccc2c(c1)N(c1cc(OC)cc3c1cc(C)c(=O)n3C)CCN2C` [Example 81] the IC50 was over 10 nM. In the case of `COc1cc(N2CCN(C)c3ccc(-c4nn[nH]n4)cc32)c2cc(C)c(=O)n(C)c2c1` [Example 84, 7-Methoxy-1,3-dimethyl-5-(4-methyl-7-(2H-tetrazol-5-yl)-3,4-dihydroquinoxalin-1(2H)-yl)quinolin-2(1H)-one], the IC50 is reported as under 50 nM. `COc1cc(N2CC(=O)N(C)c3ccc(S(N)(=O)=O)cc32)c2cc(C)c(=O)n(C)c2c1` [Example 89] gave an IC50 of over 10 nM. For `COc1cc(N2CCN(C)c3cc(-c4cnn(C)c4)c(S(N)(=O)=O)cc32)c2cc(C)c(=O)n(C)c2c1` [Example 90], the IC50 was under 50 nM. For `COc1cc(N2CCN(C)c3ccc(S(=O)(=O)N(C)C)cc32)c2cc(C)c(=O)n(C)c2c1` [Example 93, 4-(7-Methoxy-1,3-dimethyl-2-oxo-1,2-dihydroquinolin-5-yl)-N,N,1-trimethyl-1,2,3,4-tetrahydroquinoxaline-6-sulfonamide], the IC50 was 51 to 100 nM. Compound `Cc1cc2c(N3CCN(C)c4ccc(S(N)(=O)=O)cc43)cc(OC(F)F)cc2n(C)c1=O` [Example 97] has an IC50 of over 10 nM. Compound `COc1cc(N2CCN(C)c3ccc([S+](C)[O-])cc32)c2cc(C)c(=O)n(C)c2c1` (stereo not shown) [Example 99] has an IC50 of 51 to 100 nM. Compound `CC(=O)NS(=O)(=O)c1ccc2c(c1)N(c1cc(N3CC[C@@H](O)C3)cc3c1cc(C)c(=O)n3C)CCN2C` [Example 105] has an IC50 of under 50 nM. Compound `COc1cc(N2CCN(C)c3cc(C4CC4)c(S(=O)(=O)NC(C)=O)cc32)c2cc(C)c(=O)n(C)c2c1` [Example 109] has an IC50 of under 50 nM. For `COc1cc(N2CCN(C)c3cc(C4=CCCC4)c(S(=O)(=O)NC(C)=O)cc32)c2cc(C)c(=O)n(C)c2c1` [Example 110], the IC50 was under 50 nM. `COc1cc(N2CCN(C)c3ccc(S(=O)(=O)NC(=O)C(C)(C)C)cc32)c2cc(C)c(=O)n(C)c2c1` [Example 111] showed an IC50 of over 10 nM. For `COc1cc(N2CCN(C)c3cc(S(N)(=O)=O)ccc32)c2cc(C)c(=O)n(C)c2c1` [Example 114, 1-(7-Methoxy-1,3-dimethyl-2-oxo-1,2-dihydroquinolin-5-yl)-4-methyl-1,2,3,4-tetrahydroquinoxaline-6-sulfonamide], the IC50 was over 10 nM. `Cc1cc2c(N3CCN(C)c4ccc(C#N)cc43)cccc2[nH]c1=O` [Example 115, 1-Methyl-4-(3-methyl-2-oxo-1,2-dihydroquinolin-5-yl)-1,2,3,4-tetrahydroquinoxaline-6-carbonitrile] showed an IC50 of under 50 nM. Work on `COc1cc(N2CCN(C)c3cc(C(F)(F)F)ncc32)c2cc(C)c(=O)n(C)c2c1` [Example 124] yielded an IC50 of 51 to 100 nM. In the case of `Cc1cc2c(N3CCN(C)c4cc(-c5cnn(C)c5)ncc43)cc(OCCN3CCOCC3)cc2n(C)c1=O` [Example 128], the IC50 is reported as 51 to 100 nM. `Cc1cc2c(N3CCN(C)c4cc(-c5ccsc5)ncc43)cc(N3CCOCC3)cc2n(C)c1=O` [Example 140] was tested, and the IC50 was under 50 nM. `Cc1cc2c(N3CCN(C)c4cc(S(=O)(=O)C(C)C)ncc43)cc(N3CCOCC3)cc2n(C)c1=O` [Example 141] was tested, and the IC50 was 51 to 100 nM. In the case of `Cc1cc2c(N3CCN(C)c4cc(-c5cnn(C)c5)ncc43)cc(C3CCOC3)cc2n(C)c1=O` (stereo not shown) [Example 142], the IC50 is reported as under 50 nM. `Cc1cc2c(N3CCN(C)c4cc(-c5cnn(C)c5)ncc43)cc(C3CCOCC3)cc2n(C)c1=O` [Example 143] showed an IC50 of 51 to 100 nM. For `Cc1cc2c(N3CC(C)N(C)c4cc(-c5cnn(C)c5)ncc43)cc(N3CCOCC3)cc2n(C)c1=O` (stereo not shown) [Example 144], the IC50 was 51 to 100 nM.
